“And” between values parts separate entries of the source, which are not always exact repeats. Identical values can stand only once.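 Method: 48-hour compound exposure of cells in 96-well plates, five concentrations, linear interpolation of endpoints. GI50 marks 50% less growth. TGI: concentration producing complete growth inhibition.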
Key:
Assay in all cases: DTP human tumour cell line panel, 48 h
UACC-62 melanoma = test system: UACC-62 melanoma
A498 renal = test system: A498 renal
NCI-H23 lung = test system: NCI-H23 lung
UACC-257 melanoma = test system: UACC-257 melanoma
SF-268 CNS = test system: SF-268 CNS
HL-60(TB) leukemia = test system: HL-60(TB) leukemia
NCI-H460 lung = test system: NCI-H460 lung
BT-549 breast = test system: BT-549 breast
NCI-H522 lung = test system: NCI-H522 lung
SR leukemia = test system: SR leukemia

| Structure (SMILES) | GI50 (UACC-62 melanoma) [µM] | TGI (UACC-62 melanoma) [µM] | GI50 (A498 renal) [µM] | TGI (A498 renal) [µM] | GI50 (NCI-H23 lung) [µM] | TGI (NCI-H23 lung) [µM] | GI50 (UACC-257 melanoma) [µM] | TGI (UACC-257 melanoma) | GI50 (SF-268 CNS) [µM] | TGI (SF-268 CNS) [µM] | GI50 (HL-60(TB) leukemia) [µM] | TGI (HL-60(TB) leukemia) [µM] | GI50 (NCI-H460 lung) [µM] | TGI (NCI-H460 lung) [µM] | GI50 (BT-549 breast) [µM] | TGI (BT-549 breast) [µM] | GI50 (NCI-H522 lung) [µM] | TGI (NCI-H522 lung) | TGI (SR leukemia) [µM] |
| --- | --- | --- | --- | --- | --- | --- | --- | --- | --- | --- | --- | --- | --- | --- | --- | --- | --- | --- | --- |
| CC12CCC3C(CC=C4CC(O)CCC43C)C1C/C(=C\N1CCCC1)C2=O (stereo unspecified) | 41.2 | > 100 | > 100 | > 100 | > 100 | > 100 | > 100 | > 100 µM | > 100 | > 100 | 75.3 | > 100 | > 100 | > 100 | 41 | > 100 | > 100 | > 100 µM |  |
| CCCC1c2c(ccc3ccccc23)Oc2ccc3ccccc3c21 |  | > 100 |  | 78 |  | > 100 |  | 70.8 µM |  | > 100 |  |  |  | > 100 |  | > 100 |  | 80.4 µM |  |
| CCCCCCCCCCCCCCCCCC(=O)OCC(CN(C)CCN(C)C)OC(=O)CCCCCCCCCCCCCCCCC (stereo unspecified) |  | > 100 |  | > 100 |  | > 100 |  | > 100 µM |  | > 100 |  |  |  | > 100 |  |  |  | > 100 µM | 64.2 |
| Oc1ccc(Cc2ccc(O)c3ncccc23)c2cccnc12 | 0.0408 | 0.804 | 0.223 | 0.706 | 0.0448 | > 100 | 0.236 | 0.709 µM | 0.0527 | > 100 | 0.263 | > 100 | 0.0323 | > 100 | 0.0382 | > 100 | 0.0439 | 0.531 µM |  |
| COC(=O)C1CC(C(=O)OC)c2nc3cc(C)ccc3nc21 (stereo unspecified) |  | > 100 |  | > 100 |  | > 100 |  | > 100 µM |  | > 100 |  | > 100 |  | > 100 |  |  |  | > 100 µM |  |
| COC(=O)C1=C(C)N(NC(N)=O)C2(N)N(NC(N)=O)C(C)=C(C(=O)OC)C12C(=O)OC (stereo unspecified) |  | > 100 |  | > 100 |  | > 100 |  | > 100 µM |  | > 100 |  | > 100 |  | > 100 |  |  |  | > 100 µM |  |
| O=C1c2cccc3cc([N+](=O)[O-])cc(c23)C(=O)N1CCNCCNCCNCCN1C(=O)c2cccc3cc([N+](=O)[O-])cc(c23)C1=O |  | 0.106 | < 0.001 | 0.227 |  |  | 0.0979 | 0.184 µM and 0.334 µM |  | 0.7 |  |  |  | 0.0413 |  |  | < 0.001 | 0.101 µM and 0.317 µM |  |
| CC(C)C(=O)/C=C/c1ccccc1 |  | > 100 |  | > 100 |  | > 100 |  | > 100 µM |  | > 100 |  | > 100 |  | > 100 |  |  |  | > 100 µM | > 100 |
| O=c1c2ccccc2c2ccccc2c(=O)n1-c1cc2c3ccccc3ccc2c2ccccc12 |  | > 100 |  | > 100 |  | > 100 |  | > 100 µM |  | > 100 |  |  |  | > 100 |  | > 100 |  | > 100 µM |  |
| COc1cc2oc(=O)ccc2cc1C1OC(=O)C2OC21C (stereo unspecified) |  | > 100 |  |  |  | > 100 |  | > 100 µM |  | > 100 |  | > 100 |  | > 100 |  |  |  |  | > 100 |
